Measurements taken from PubChem BioAssay (NCI).
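Dose response: 5 concentrations. Exposure: 48 h. Format: 96-well plates. Endpoint: linear interpolation; highest concentration if not reached. At the GI50, growth is halved. At the TGI there is no net growth.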

Experiments:
Experiment in all cases: inhibition of tumour cell growth, NCI panel, 48 h; in the data active = GI50 below about 0.43 µM; inactive = the rest
[1] = tested on: HCC-2998 colon
[2] = tested on: OVCAR-3 ovarian
[3] = tested on: IGROV1 ovarian
[4] = tested on: HT29 colon
[5] = tested on: SK-OV-3 ovarian
[6] = tested on: OVCAR-4 ovarian
[7] = tested on: UACC-62 melanoma
[8] = tested on: A498 renal
[9] = tested on: HCT-15 colon
[10] = tested on: HOP-62 NSCLC
[11] = tested on: OVCAR-5 ovarian
[12] = tested on: MOLT-4 leukemia
[13] = tested on: SNB-75 CNS
[14] = tested on: EKVX NSCLC
[15] = tested on: RPMI-8226 leukemia
[16] = tested on: NCI/ADR-RES ovarian
[17] = tested on: HCT-116 colon
[18] = tested on: 786-0 renal
[19] = tested on: TK-10 renal
[20] = tested on: SK-MEL-2 melanoma
[21] = tested on: HL-60(TB) leukemia
[22] = tested on: CAKI-1 renal
[23] = tested on: NCI-H23 lung
[24] = tested on: NCI-H522 lung
[25] = tested on: SF-268 CNS
[26] = tested on: CCRF-CEM leukemia
[27] = tested on: ACHN renal
[28] = tested on: MDA-MB-231 breast
[29] = tested on: COLO 205 colon
[30] = tested on: UO-31 renal
[31] = tested on: MALME-3M melanoma
[32] = tested on: SW-620 colon
[33] = tested on: SN12C renal
[34] = tested on: NCI-H460 lung
[35] = tested on: NCI-H226 lung
[36] = tested on: K-562 leukemia
[37] = tested on: SF-295 CNS
[38] = tested on: SK-MEL-5 melanoma
[39] = tested on: A549 NSCLC
[40] = tested on: MCF7 breast
[41] = tested on: OVCAR-8 ovarian
[42] = tested on: PC-3 prostate
[43] = tested on: UACC-257 melanoma
[44] = tested on: T-47D breast
[45] = tested on: DU-145 prostate
[46] = tested on: BT-549 breast
[47] = tested on: MDA-MB-435
[48] = tested on: SF-539 CNS
[49] = tested on: SR leukemia
[50] = tested on: M14 melanoma
[51] = tested on: SNB-19 CNS
[52] = tested on: U251 CNS
[53] = tested on: HS 578T breast
[54] = tested on: KM12 colon
[55] = tested on: LOX IMVI melanoma
[56] = tested on: HOP-92 NSCLC
[57] = tested on: SK-MEL-28 melanoma

CCN(CC)CCOc1ccc(C(=C(c2ccccc2)C2CCCC2)c2ccc(OCCN(CC)CC)cc2)cc1
10.3 µM: TGI [31]
14.7 µM: TGI [55]
7.45 µM: TGI [47]
7.88 µM: TGI [49]
10.4 µM: TGI [4]
6.89 µM: TGI [56]
13.3 µM: TGI [12]
inactive: GI50 [1] 4.62 µM | GI50 [2] 3.07 µM | GI50 [3] 3.49 µM | GI50 [4] 3.82 µM | GI50 [5] 7.95 µM | GI50 [6] 5.35 µM | GI50 [7] 3.92 µM | GI50 [8] > 16.3 µM | GI50 [9] > 16.3 µM | GI50 [10] 9.41 µM | GI50 [11] 6.13 µM | GI50 [12] 4.47 µM | GI50 [13] 4.58 µM | GI50 [14] 7.53 µM | GI50 [15] 2.77 µM | GI50 [16] > 16.3 µM | GI50 [17] 4.89 µM | GI50 [18] 12.2 µM | GI50 [19] > 16.3 µM | GI50 [20] 5.49 µM | GI50 [21] 3.13 µM | GI50 [22] > 16.3 µM | GI50 [23] 5.64 µM | GI50 [24] 6.3 µM | GI50 [25] 5.35 µM | GI50 [26] 4.52 µM | GI50 [27] > 16.3 µM | GI50 [28] 4.57 µM | GI50 [29] 3.2 µM | GI50 [30] > 16.3 µM | GI50 [31] 3.57 µM | GI50 [32] 5.05 µM | GI50 [33] 5.28 µM | GI50 [34] 4.84 µM | GI50 [35] 6.58 µM | GI50 [36] 5.57 µM | GI50 [37] 5.77 µM | GI50 [38] 5.31 µM | GI50 [39] 6.46 µM | GI50 [40] 2.53 µM | GI50 [41] 6.88 µM | GI50 [42] 6.16 µM | GI50 [43] 5.09 µM | GI50 [44] 5.6 µM | GI50 [45] 7.97 µM | GI50 [46] 2.27 µM | GI50 [47] 3.19 µM | GI50 [48] 5.51 µM | GI50 [49] 3.29 µM | GI50 [50] 7.22 µM | GI50 [51] 4.96 µM | GI50 [52] 3.85 µM | GI50 [53] 3.64 µM | GI50 [54] 2.81 µM | GI50 [55] 4.45 µM | GI50 [56] 1.33 µM | GI50 [57] 6.5 µM
12.5 µM: TGI [52]
7.14 µM: TGI [21]
> 16.3 µM: TGI [1] | TGI [5] | TGI [6] | TGI [8] | TGI [9] | TGI [10] | TGI [11] | TGI [13] | TGI [14] | TGI [16] | TGI [17] | TGI [18] | TGI [19] | TGI [20] | TGI [22] | TGI [23] | TGI [24] | TGI [25] | TGI [26] | TGI [27] | TGI [30] | TGI [32] | TGI [33] | TGI [34] | TGI [35] | TGI [36] | TGI [37] | TGI [38] | TGI [39] | TGI [41] | TGI [42] | TGI [43] | TGI [44] | TGI [45] | TGI [48] | TGI [50] | TGI [51] | TGI [57]
10.7 µM: TGI [15]
12.8 µM: TGI [53]
7.63 µM: TGI [29]
15.6 µM: TGI [28]
6.04 µM: TGI [46]
6.54 µM: TGI [2]
5.28 µM: TGI [54]
7.66 µM: TGI [3]
11.1 µM: TGI [7]
5.01 µM: TGI [40]
